Measured values taken from PMC9603521, “WYBQ-4: a New Bactericidal Agent against Methicillin-Resistant Staphylococcus aureus” (Microbiology Spectrum, 2022).
≈ marks a conversion by molar mass, not a printed value. Where “and” joins values, the source holds several entries; their conditions need not be identical. Identical values can stand only once.

How the values were obtained:
PBP2a = PBP2a (Staphylococcus aureus, UniProt P07944); assay: PBP2a acylation kinetics, nitrocefin competition assay; format: biochemical, MRSA
PBP2a, sequence (P07944 whole entry): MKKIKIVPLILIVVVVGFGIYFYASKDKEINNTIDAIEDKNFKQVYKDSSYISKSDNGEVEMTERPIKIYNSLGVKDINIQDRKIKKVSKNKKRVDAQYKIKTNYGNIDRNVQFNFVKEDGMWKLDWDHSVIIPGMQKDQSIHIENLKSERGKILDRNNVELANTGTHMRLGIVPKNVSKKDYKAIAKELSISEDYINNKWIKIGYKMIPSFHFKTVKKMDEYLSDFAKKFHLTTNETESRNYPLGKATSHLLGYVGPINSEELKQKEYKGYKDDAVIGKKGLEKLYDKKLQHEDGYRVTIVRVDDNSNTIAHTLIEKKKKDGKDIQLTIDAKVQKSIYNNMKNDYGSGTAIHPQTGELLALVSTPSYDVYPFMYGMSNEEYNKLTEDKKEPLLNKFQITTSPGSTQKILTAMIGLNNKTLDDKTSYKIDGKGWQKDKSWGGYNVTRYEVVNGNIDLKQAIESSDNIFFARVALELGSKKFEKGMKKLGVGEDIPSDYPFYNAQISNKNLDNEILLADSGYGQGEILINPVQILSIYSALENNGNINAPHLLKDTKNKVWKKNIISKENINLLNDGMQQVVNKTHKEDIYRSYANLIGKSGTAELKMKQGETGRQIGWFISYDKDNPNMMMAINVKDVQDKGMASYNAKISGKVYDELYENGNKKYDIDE
Protocol: Please refer to the supplemental material for the kinetic parameters of the interaction between WYBQ-4 and PBP2a and the determination of the rate of diacylation.
Supplementary Method. 1 Determination of the Kinetic Parameters for Interactions of […]
Determination of the kinetic parameters for interactions of WYBQ-4 with PBP2a The kinetic parameters of the interaction of WYBQ-4 with PBP2a were determined as previously described (1). The kinetics of the reaction between PBP2a of MRSA with WYBQ-4 was studied in homogeneous aqueous solution at 37℃ in 25 mM Hepes buffer, pH 7.0, containing 1 M NaCl and the inhibition of PBPs by β-lactams follows this kinetic scheme. […]
In this minimal scheme, E represents PBP2a, EI is the noncovalent preacylation complex, E-I is the covalent acyl-enzyme species, and P denotes the product of E-I hydrolysis and restoration of […]
The typical reactions of β-lactam could be monitored through competition with a chromophoric β-lactam, nitrocefin, or directly in certain cases by fluorescence intensity of protein. In this study, it is proposed to determine the secondary rate constants (k2/Ks) of WYBQ-4 by nitrocefin competition assay. The reaction was conducted in the above buffer, and the reaction system contained PBP2a (2.5 μM) and different concentrations of nitrocefin (20-120 μM). The reaction was carried out in a UV spectrophotometer (PERSEE T600, China) and the change in absorbance at 500 nm was […]
Apparent first-order rate constants for acylation by nitrocefin were determined by fitting the change in absorbance with time to eqn. (1):
A = A0 + ∆εn E0[(1 − exp (−kn∗ t)] + k0N0∆εn Ε0t (1) where A0 is the initial absorbance at 500 nm, ∆εn the change in molar absorption coefficient on nitrocefin hydrolysis (15900 M-1cm-1), E0 the initial enzyme concentration, N0 the initial nitrocefin concentration, kn* the (burst) pseudo-first-order rate constant for acylation of PBP2a by nitrocefin, and k0 the (line) second-order rate constant of a non-specific hydrolysis of nitrocefin in the presence of PBP2a. The second-order rate constants (kn) for acylation were calculated by fitting a plot of the apparent first-order rate constants (kn*) against the concentration of nitrocefin using a linear least-squares method.
Subsequently, nitrocefin (100 μM) was used as a reporter molecule to determine the apparent first-order rate constants for acylation of WYBQ-4 at different concentrations (0-500 μM) in competition assays. In this case, the change in absorbance at 500 nm with time was fitted to eqn.
Α = A + ∆ε E (k∗ ∕ (k∗ + k∗)(1 − exp (−(k∗ + k∗)t)) + k N ∆ε Ε t (2) […]

MSSA 29213 [1] = assay: Mouse intramuscular (thigh) infection model; format: in vivo; details: MSSA 29213-infected mice; 300 mg/kg subcutaneous; 24 h after infection
Protocol: (§1) The therapeutic effects of WYBQ-4 on thigh infections induced by MRSA USA300 and MSSA 29213 in mice (6-week-old female C57BL/6J mice) were evaluated. […] Mice were infected by intramuscular injection of 0.1 mL of S. aureus culture (5 × 10^5 CFU) into the right thigh. […] Then, 24 h after infection, mice were euthanized, and the right thighs were aseptically removed, weighed, homogenized, and applied to nonresistant BHI plates for CFU counting.

MRSA USA300 [2] = assay: Mouse intramuscular (thigh) infection model; format: in vivo; details: MRSA USA300-infected mice; 300 mg/kg subcutaneous; 24 h after infection
Protocol: as §1

rabbit red blood cells = assay: Hemolytic activity; format: cell-based; details: 0 to 512 μg/mL
MSSA 29213 [3] = assay: Time-kill curve; format: cell-based, Staphylococcus aureus; details: 4× MIC, at 9 h
Protocol: (§2) The bactericidal activities of WYBQ-4 against MSSA 29213 and MRSA USA300 were determined in vitro. Overnight cultures were diluted to 10^6 CFU (CFU)/mL in 10 mL of fresh Mueller-Hinton broth (MHB) medium. […] After incubation at 37°C with shaking for 0 to 24 h, 100-μL samples from each time point were subcultured on MHB agar plates and incubated at 37°C for 24 h. MSSA 29213 and MRSA USA300 without WYBQ-4 were used as control groups. Colony numbers were counted to calculate the CFU, and the data were expressed as log10 CFU. Three biological replicates were performed for the experiment.

MRSA USA300 [4] = assay: Time-kill curve; format: cell-based, Staphylococcus aureus; details: 8× MIC, at 9 h
Protocol: as §2

MRSA USA300 [5] = assay: TEM analysis of cell morphology / division defects; format: cell-based, Staphylococcus aureus; details: 4 μg/mL (1/2× MIC), 3 h
Protocol: MRSA USA300 was cultured overnight, diluted (1:100) into 20 mL of Trypticase soy broth (TSB) medium, and incubated at 30°C with shaking until the optical density at 600 nm (OD600) reached 0.3. […] Bacterial cells treated with 4 μg/mL ceftaroline fosamil (1/2 of their respective MIC) served as a control group. Untreated S. aureus served as a negative control. Bacteria were collected and washed in PBS and resuspended in 4% (vol/vol) glutaraldehyde fixation overnight. The fixed samples were further processed, and morphological changes in S. aureus were observed by TEM (JSM-7900F; JEOL, Japan).

Streptococcus pyogenes = assay: MIC by broth microdilution (CLSI); format: cell-based

C#CCO[C@@]1(NC(=O)CSc2cccc(C)c2)C(=O)N2C(C(=O)O)=C(CSc3nnnn3C)CSC21 (some centres unmarked) [WYBQ-4]
k2 (PBP2a; PBP2a acylation): 4.872 ± 0.14 s^–1 × 10^3
kinact/KI (PBP2a; pH 7, read-out: k2/ks): 174 ± 8.45 M⁻¹ s⁻¹
bacterial load in the thighs (MSSA 29213 [1]): 5.21 log10 CFU/g
bacterial load in the thighs (MRSA USA300 [2]): 5.97 log10 CFU/g
hemolytic activity (rabbit red blood cells): did not show hemolytic activity
time-dependent killing effect (MSSA 29213 [3]): complete sterilization
time-dependent killing effect (MRSA USA300 [4]): complete sterilization
Asymmetry of bacterial division (number of cells) (MRSA USA300 [5]): 38
Distortion of septa (number of cells) (MRSA USA300 [5]): 27
Percentage of defective cells (asymmetry of bacterial division) (MRSA USA300 [5]): 40.9 b %
Percentage of defective cells (distortion of septa) (MRSA USA300 [5]): 29.0 a %
Percentage of defective cells (thin cell walls) (MRSA USA300 [5]): 63.4% and 63.4 c %
Thin cell walls (number of cells) (MRSA USA300 [5]): 59
MIC (Streptococcus pyogenes): 1 µg/mL (≈ 1.83 µM)
